Legend:
[1] = tested on: Sorghum halepense (Johnsongrass); assay: Greenhouse post-emergence weed control of seedling johnsongrass, visual % control, Colby expected response
Method: In this evaluation, seedling johnsongrass was grown in 9-cm diameter styrofoam cups in a soil medium of a 1:1 mixture of top-soil from a Freestone fine sandy loam (fine-loamy, siliceous, thermic Aquic Paleudalf) and masonry sand. The temperature in the greenhouse was maintained at 31 ″5° C. for several weeks until the plants were approximately 5-inch (13 cm) leaf seedlings. Said plants were then sprayed with an aqueous solution of the test compounds at the rates indicated in Tables Ia and Ib as measured in lbs of herbicide per acre. Each treatment was replicated 4 times and the average control % (on a visual basis) is shown in Table Ia for 10 days after treatment and Table Ib for 20 days after treatment.
The methods described by Colby in “Calculating Synergistic and Antagonistic Responses of Herbicide Combinations,” 15 Weeds 20-22 (1967), were used to calculate interactions of herbicide tank mixtures. The expected response for tank mixtures was calculated by taking the product of the recorded values from the herbicides applied alone and dividing by 100.

[2] = tested on: SORHAZ (johnsongrass, approximate height 3 feet); assay: Field plot weed control, visual % control, rhizome johnsongrass; format: in vivo
Method: (§1) In this evaluation, seedling weeds of rhizome johnsongrass and white clover were grown in a field plot until they reached a height of 3 feet (0.9 m) and 3 inches (8 cm) respectively. The plants were then sprayed with an aqueous solution or emulsification of the test compounds at various rates as indicated in Table II. The control % (on a visual basis) is shown in Table II for 7 and 16 days after treatment.
(§2) Sethoxydim is formulated as a 1.5 lb ai/g (0.68 kg ai/g) emulsification.
(§3) Imazapyr is formulated as a 4.0 lb ai/g (1.8 kg ai/g) aqueous solution.
SORHAZ is johnsongrass with an approximate height of 3 feet (0.9 m).

[3] = tested on: TRFRE (white clover, approximate height 3 inches); assay: Field plot weed control, visual % control, white clover; format: in vivo
Method: as §1, §2, §3
TRFRE is white clover with an approximate height of 3 inches (8 cm).

[4] = 10 Days After Treatment, Sethoxydim 0 lb/A, imidazolinone 0.008 lb/A (0.009 kg/ha)
[5] = 10 Days After Treatment, Sethoxydim 0 lb/A, imidazolinone 0.016 lb/A (0.018 kg/ha)
[6] = 10 Days After Treatment, Sethoxydim 0 lb/A, imidazolinone 0.032 lb/A (0.036 kg/ha)
[7] = 20 Days After Treatment, Sethoxydim 0 lb/A, imidazolinone 0.008 lb/A (0.009 kg/ha)
[8] = 20 Days After Treatment, Sethoxydim 0 lb/A, imidazolinone 0.016 lb/A (0.018 kg/ha)
[9] = 20 Days After Treatment, Sethoxydim 0 lb/A, imidazolinone 0.032 lb/A (0.036 kg/ha)
[10] = Treatment 3: graminicide 0, imidazolinone 0.008 lb/A (0.009 kg/ha)
[11] = Treatment 2: graminicide 0.20 lb/A (0.22 kg/ha), imidazolinone 0

COCc1cnc(C2=NC(C)(C(C)C)C(=O)N2)c(C(=O)O)c1 (stereo not shown) [imazamox, 2-[4,5-dihydro-4-methyl-4-(1-methylethyl)-5-oxo-1H-imidazol-2-yl]-5(methoxymethyl)-3-pyridinecarboxylic acid]
Actual Control (%) ([1]; 10 Days After Treatment, Sethoxydim 0 lb/A, imidazolinone 0.004 lb/A (0.004 kg/ha)): 12.5% | Actual Control (%) [1, 4]: 12.5% | Actual Control (%) [1, 5]: 10% | Actual Control (%) [1, 6]: 10% | Actual Control (%) ([1]; 20 Days After Treatment, Sethoxydim 0 lb/A, imidazolinone 0.004 lb/A (0.004 kg/ha)): 30% | Actual Control (%) [1, 7]: 40% | Actual Control (%) [1, 8]: 40% | Actual Control (%) [1, 9]: 50%

CC(C)C1(C)N=C(c2nc3ccccc3cc2C(=O)O)NC1=O (stereo not shown) [imazaquin, 2-(4,5-dihydro-4-methyl-4-(1-methyl-ethyl)-5-oxo-1H-imidazol-2-yl]-3-quinolinecarboxylic acid]
Actual Control (%) [1, 4]: 0% | Actual Control (%) [1, 5]: 0% | Actual Control (%) [1, 6]: 0% | Actual Control (%) ([1]; 10 Days After Treatment, Sethoxydim 0 lb/A, imidazolinone 0.063 lb/A (0.070 kg/ha)): 0% | Actual Control (%) [1, 7]: 0% | Actual Control (%) [1, 8]: 2.5% | Actual Control (%) [1, 9]: 3.8% | Actual Control (%) ([1]; 20 Days After Treatment, Sethoxydim 0 lb/A, imidazolinone 0.063 lb/A (0.070 kg/ha)): 5%

CC(C)C1(C)N=C(c2ncccc2C(=O)O)NC1=O (stereo not shown) [imazapyr, (″)-2-[4,5-dihydro-4-methyl-4-(1-methylethyl)-5-oxo-1H-imidazol-2-yl]-3-pyridinecar-boxylic acid]
SORHAZ 7 DAT Control (%) [2, 10]: 0% | SORHAZ 16 DAT Control (%) [2, 10]: 0% | TRFRE 7 DAT Control (%) [3, 10]: 0% | TRFRE 16 DAT Control (%) [3, 10]: 0%

CCCC(=NOCC)C1=C(O)CC(CC(C)SCC)CC1=O (stereo not shown) [Sethoxydim, 2-[1-(ethoxyimino)butyl]-5-[2-(ethylthio)propyl]-3-hydroxy-2-cyclohexen-1-one]
SORHAZ 7 DAT Control (%) [2, 11]: 26.7% | SORHAZ 16 DAT Control (%) [2, 11]: 38.3% | TRFRE 7 DAT Control (%) [3, 11]: 0% | TRFRE 16 DAT Control (%) [3, 11]: 0% | Actual Control (%) ([1]; 10 Days After Treatment, Sethoxydim 0.1 lb/A (0.1 kg/ha), no imidazolinone): 20% | Actual Control (%) ([1]; 10 Days After Treatment, Sethoxydim 0.2 lb/A (0.2 kg/ha), no imidazolinone): 87.5% | Actual Control (%) ([1]; 20 Days After Treatment, Sethoxydim 0.1 lb/A (0.1 kg/ha), no imidazolinone): 30% | Actual Control (%) ([1]; 20 Days After Treatment, Sethoxydim 0.2 lb/A (0.2 kg/ha), no imidazolinone): 95%
